Reference: publication PMC7256108 (Cellular and Molecular Life Sciences: CMLS, 2019)
Where “and” joins values, the source holds several entries; their conditions need not be identical. Equal values may be shown once. Read-outs that look alike come from different tables or passages of the source.

Experiments:
Format in all cases: cell-based
OR2M3 wt = biological target: T1, OR2M3 wt (Homo sapiens, UniProt Q8NG83); assay: cAMP-luminescence GloSensor assay, recombinant OR2M3 wt; details: OR2M3 wt
T1 construct: full-length gene-specific forward and reverse primers were added; 39aa rho-tag; expressed in transfected cells; host or cells: NxG 108CC15 or HEK-293 cells
T1 sequence (Q8NG83 1-312): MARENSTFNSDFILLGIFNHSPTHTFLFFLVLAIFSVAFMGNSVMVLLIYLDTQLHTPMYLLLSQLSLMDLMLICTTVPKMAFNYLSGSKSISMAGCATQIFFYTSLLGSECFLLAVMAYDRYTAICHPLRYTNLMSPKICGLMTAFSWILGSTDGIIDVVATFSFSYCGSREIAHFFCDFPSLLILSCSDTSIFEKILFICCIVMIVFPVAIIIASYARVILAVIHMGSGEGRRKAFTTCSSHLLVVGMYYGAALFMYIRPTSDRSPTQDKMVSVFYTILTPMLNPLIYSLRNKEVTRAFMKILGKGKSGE
Description: (§1) The assay was performed as reported above.
(§2) All data are presented as mean ± SD.

OR2M3 T105A = biological target: T2, OR2M3 T105A (Homo sapiens, UniProt Q8NG83, T105A); assay: GloSensor assay, OR2M3 T105A
T2 construct: 39aa rho-tag; expressed in transfected cells; host or cells: NxG 108CC15 or HEK-293 cells
Description: (§3) All receptor variants used were generated by PCR-based site-directed mutagenesis in two steps. Gene-specific primers (mutation primers) were used according to Table S2 and Table S3. The mutation primers, which carried the changed nucleotides, were designed overlapping.
as §1, §2

OR2M3 C112A = biological target: T3, OR2M3 C112A (Homo sapiens, UniProt Q8NG83, C112A); assay: GloSensor assay, OR2M3 C112A
T3 construct: 39aa rho-tag; expressed in transfected cells; host or cells: NxG 108CC15 or HEK-293 cells
Description: as §3, §1, §2

OR2M3 C203S = biological target: T4, OR2M3 C203S (Homo sapiens, UniProt Q8NG83, C203S); assay: GloSensor assay, OR2M3 C203S; details: 10 µmol/L Cu^2+, read-out: EC50 in the presence of Cu^2+
T4 construct: 39aa rho-tag; expressed in transfected cells; host or cells: NxG 108CC15 or HEK-293 cells
Description: as §3, §1, §2

OR2M3 Y104C = biological target: T5, OR2M3 Y104C (Homo sapiens, UniProt Q8NG83, Y104C); assay: GloSensor assay, OR2M3 Y104C; details: OR2M3 Y104C (SNP haplotype)
T5 construct: full-length gene-specific forward and reverse primers were added; 39aa rho-tag; expressed in transfected cells; host or cells: NxG 108CC15 or HEK-293 cells
From the text: as §3, §2
(§4) (a) Schematic snake diagram with localization of mutated amino acid positions within OR2M3, which have been chosen because of their close vicinity to putative interaction sites with odorants as proposed by Man et al. (red circles). Effects of 3-mercapto-2-methylpentan-1-ol on OR2M3 variants (black curves) with SNP-defined single amino acid changes at positions 104^3.32 (b), 206^5.45 (c), and 207^5.46 (d). Note that the same data set for 3-mercapto-2-methylpentan-1-ol on OR2M3 wt (grey, see also Fig. 1b, d) is given in panels (b)-(d) for didactic reasons. […] RLU = relative luminescence unit. 3MMP = 3-mercapto-2-methylpentan-1-ol.

OR2M3 I207L = biological target: T6, OR2M3 I207L (Homo sapiens, UniProt Q8NG83, I207L); assay: GloSensor assay, OR2M3 I207L; details: OR2M3 I207L (SNP haplotype)
T6 construct: full-length gene-specific forward and reverse primers were added; 39aa rho-tag; expressed in transfected cells; host or cells: NxG 108CC15 or HEK-293 cells
From the text: as §3, §2, §4

OR2M3 M206I = biological target: T7, OR2M3 M206I (Homo sapiens, UniProt Q8NG83, M206I); assay: GloSensor assay, OR2M3 M206I; details: OR2M3 M206I (SNP haplotype)
T7 construct: 39aa rho-tag; expressed in transfected cells; host or cells: NxG 108CC15 or HEK-293 cells
From the text: as §3, §2, §4

OR2M3 C112S = biological target: T8, OR2M3 C112S (Homo sapiens, UniProt Q8NG83, C112S); assay: GloSensor assay, OR2M3 C112S; details: presence of copper 10 µmol/L, agonist 20 µmol/L
T8 construct: 39aa rho-tag; expressed in transfected cells; host or cells: NxG 108CC15 or HEK-293 cells
Description: as §3, §1, §2

OR2M3 C202A = biological target: T9, OR2M3 C202A (Homo sapiens, UniProt Q8NG83, C202A); assay: GloSensor assay, OR2M3 C202A; details: even in the presence of Cu^2+, agonist 20 µmol/L
T9 construct: 39aa rho-tag; expressed in transfected cells; host or cells: NxG 108CC15 or HEK-293 cells
Description: as §3, §1, §2

OR2M3 C202S = biological target: T10, OR2M3 C202S (Homo sapiens, UniProt Q8NG83, C202S); assay: GloSensor assay, OR2M3 C202S; details: even in the presence of Cu^2+, agonist 20 µmol/L
T10 construct: full-length gene-specific forward and reverse primers were added; 39aa rho-tag; expressed in transfected cells; host or cells: NxG 108CC15 or HEK-293 cells
Description: as §3, §1, §2

OR2M3 C203A = biological target: T11, OR2M3 C203A (Homo sapiens, UniProt Q8NG83, C203A); assay: GloSensor assay, OR2M3 C203A; details: even in the presence of Cu^2+, agonist 20 µmol/L
T11 construct: 39aa rho-tag; expressed in transfected cells; host or cells: NxG 108CC15 or HEK-293 cells
Description: as §3, §1, §2

OR2M3 C203Y = biological target: T12, OR2M3 C203Y (Homo sapiens, UniProt Q8NG83, C203Y); assay: GloSensor assay, OR2M3 C203Y; details: in the absence or presence of Cu^2+
T12 construct: full-length gene-specific forward and reverse primers were added; 39aa rho-tag; expressed in transfected cells; host or cells: NxG 108CC15 or HEK-293 cells
Description: as §3, §1, §2

OR2M3 C241A = biological target: T13, OR2M3 C241A (Homo sapiens, UniProt Q8NG83, C241A); assay: GloSensor assay, OR2M3 C241A; details: OR2M3 Cys241 to alanine; in the absence or presence of Cu^2+
T13 construct: 39aa rho-tag; expressed in transfected cells; host or cells: NxG 108CC15 or HEK-293 cells
Description: as §3, §1, §2

OR2M3 H244A = biological target: T14, OR2M3 H244A (Homo sapiens, UniProt Q8NG83, H244A); assay: GloSensor assay, OR2M3 H244A; details: OR2M3 His244 to alanine; in the absence or presence of Cu^2+
T14 construct: 39aa rho-tag; expressed in transfected cells; host or cells: NxG 108CC15 or HEK-293 cells
Description: as §3, §1, §2

[1] = 10 µmol/L Cu^2+, read-out: EC50 in the presence of Cu^2+
[2] = presence of copper 10 µmol/L, agonist 20 µmol/L

T3 sequence (Q8NG83 whole entry C112A): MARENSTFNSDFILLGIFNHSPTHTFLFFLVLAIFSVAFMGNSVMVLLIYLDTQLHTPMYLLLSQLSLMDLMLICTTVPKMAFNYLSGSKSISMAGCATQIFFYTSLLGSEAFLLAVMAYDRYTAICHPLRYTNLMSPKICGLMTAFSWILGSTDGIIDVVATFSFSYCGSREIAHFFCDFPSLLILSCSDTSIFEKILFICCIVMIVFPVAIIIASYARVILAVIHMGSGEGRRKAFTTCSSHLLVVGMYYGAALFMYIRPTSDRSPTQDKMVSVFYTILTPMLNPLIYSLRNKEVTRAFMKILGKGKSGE
T2 sequence (Q8NG83 whole entry T105A): as the sequence (Q8NG83 whole entry C112A) above, with T105A, A112C counted along it
T6 sequence (Q8NG83 whole entry I207L): as the sequence (Q8NG83 whole entry C112A) above, with A112C, I207L counted along it
T13 sequence (Q8NG83 whole entry C241A): as the sequence (Q8NG83 whole entry C112A) above, with A112C, C241A counted along it
T14 sequence (Q8NG83 whole entry H244A): as the sequence (Q8NG83 whole entry C112A) above, with A112C, H244A counted along it
T12 sequence (Q8NG83 whole entry C203Y): as the sequence (Q8NG83 whole entry C112A) above, with A112C, C203Y counted along it
T9 sequence (Q8NG83 whole entry C202A): as the sequence (Q8NG83 whole entry C112A) above, with A112C, C202A counted along it
T8 sequence (Q8NG83 whole entry C112S): as the sequence (Q8NG83 whole entry C112A) above, with A112S counted along it
T5 sequence (Q8NG83 whole entry Y104C): as the sequence (Q8NG83 whole entry C112A) above, with Y104C, A112C counted along it
T4 sequence (Q8NG83 whole entry C203S): as the sequence (Q8NG83 whole entry C112A) above, with A112C, C203S counted along it
T10 sequence (Q8NG83 whole entry C202S): as the sequence (Q8NG83 whole entry C112A) above, with A112C, C202S counted along it
T11 sequence (Q8NG83 whole entry C203A): as the sequence (Q8NG83 whole entry C112A) above, with A112C, C203A counted along it
T7 sequence (Q8NG83 whole entry M206I): as the sequence (Q8NG83 whole entry C112A) above, with A112C, M206I counted along it

EC50 (OR2M3 wt; 10 µmol/L Cu^2+, mean ± SD (n = 3–5), read-out: EC50 in the presence of Cu^2+): 290 ± 100 nM
Relative amplitude (OR2M3 wt; 30 µmol/L AgAc, normalized to wt signal without Cu^2+): 5.72 ± 0.42
EC50 (OR2M3 wt; 30 µmol/L AgAc, read-out: EC50): 870 ± 500 nM
Relative amplitude (OR2M3 wt; 30 µmol/L AgNO3, normalized to wt signal without Cu^2+): 6.41 ± 1.17
EC50 (OR2M3 wt; 30 µmol/L AgNO3, read-out: EC50): 1490 ± 360 nM
EC50 (OR2M3 wt; 30 µmol/L CoCl2, read-out: EC50): 730 ± 260 nM
EC50 (OR2M3 wt; 30 µmol/L CuCl2 + copper chelator TEPA, read-out: EC50): 1130 ± 360 nM
EC50 (OR2M3 wt; 30 µmol/L FeCl3, read-out: EC50): 1670 ± 340 nM
EC50 (OR2M3 wt; 30 µmol/L NiCl2, read-out: EC50): 1090 ± 630 nM
Relative amplitude (OR2M3 wt; 30 µmol/L ZnSO4, n.d. = no detectable response up to 60 µmol/L): complete loss-of-function
Relative amplitude (OR2M3 wt; 30 µmol/L colloidal Ag, normalized to wt signal without Cu^2+): 3.52 ± 0.69
EC50 (OR2M3 wt; 30 µmol/L colloidal Ag, read-out: EC50): 760 ± 350 nM
Hill coefficient (OR2M3 wt; absence of copper (n = 4)): 0.89 ± 0.41
Relative amplitude (OR2M3 wt; copper concentration 60 µmol, normalized to wt signal without Cu^2+): 1.42 ± 0.64
EC50 (OR2M3 wt; copper concentration 60 µmol, read-out: EC50): 1470 ± 120 nM
Relative amplitude (OR2M3 wt; copper concentration 100 µmol, normalized to wt signal without Cu^2+): 0.73 ± 0.48
EC50 (OR2M3 wt; copper concentration 100 µmol, read-out: EC50): 1950 ± 300 nM
EC50 (OR2M3 wt; no metal supplementation (w/o), mean ± SD (n = 3–5), read-out: EC50 in the absence of Cu^2+): 450 ± 190 nM
EC50 (OR2M3 wt; presence of 30 µmol/L CuCl2, read-out: EC50): 550 ± 10 nM
Hill coefficient (OR2M3 wt; presence of copper (10 µmol/L) (n = 4)): 1.9 and 1.93 ± 0.71 and ~2
increase in amplitude (OR2M3 wt; supplementation with ionic or colloidal silver, 30 µmol/L): three-to-sixfold increase in amplitude
Relative amplitude (OR2M3 wt; w/o metal, normalized to OR2M3 wt signal with 3-mercapto-2-methylpentan-1-ol (20 µmol/L) in the absence of Cu^2+ (reference)): 1
EC50 (OR2M3 T105A; [1]): 750 ± 270 nM
agonist function in mutant receptor (OR2M3 T105A; [2]): rescued
EC50 (OR2M3 C112A; [1]): 860 ± 4 nM
agonist function in mutant receptor (OR2M3 C112A; [2]): rescued
EC50 (OR2M3 C203S): 3160 ± 10 nM
EC50 (OR2M3 Y104C): 1020 ± 180 nM
EC50 (OR2M3 I207L): 1410 ± 40 nM
receptor function (response to agonist) (OR2M3 M206I): complete loss-of-function
agonist function in mutant receptor (OR2M3 C112S): rescued
agonist function in mutant receptor (OR2M3 C202A): complete loss-of-function
agonist function in mutant receptor (OR2M3 C202S): complete loss-of-function
agonist function in mutant receptor (OR2M3 C203A): complete loss-of-function
agonist function in mutant receptor (OR2M3 C203Y): complete loss-of-function
agonist function in mutant receptor (OR2M3 C241A): not functional anymore
agonist function in mutant receptor (OR2M3 H244A): not functional anymore
SMILES: CCC(S)C(C)CO (stereo not shown) [3-Mercapto-2-methylpentan-1-ol, 3-mercapto-2-methylpentan-1-ol]
